Experimental data taken from patent US20020127228A1, “PGT and apoptosis” (WELFIDE CORPORATION, priority 1998, published 2002).

How the values were obtained:
NRK52E cells [1] = assay: Apoptosis induced by NO donor GSNO in NRK52E kidney cells; format: cell-based, rat
Method: (§1) 1) Apoptosis was induced by NO (nitrogen monoxide) in kidney cells. NRK52E cells, which are established from a rat renal tubule epithelial cell line, mainly derived from distal were cultured for 24 hours with a chamber slide that was coated with type-I collagen. Afterwards, the cultured medium was changed to a serum-free medium, and apoptosis was induced by addition of NOC12 (0.4 mM) or S-nitroso L-glutathione (GSNO: 1 mM), which are NO donors.
(§2) 4) Inhibitory effect of PGE1 to the induction of apoptosis in kidney cells was investigated PGE1 was added simultaneously with the addition of a NO donor to a final concentration of 1 or 10 μM. After 24 hrs, cells were fixed with a 1% glutaraldehyde solution and stained with Hoechst 33342. Three visual fields were selected arbitrarily per slide, and the ratio of the cells count where nuclear fragmentation and condensation appeared was calculated with respect to the total cells in the field (magnification: 400x). The n was 5.
5) The relationship between PGT inhibitors and kidney cell apoptosis induced by GSNO was examined. With a final concentration of BrCG, which is a PGT inhibitor, of 60 μM, manners other than simultaneous addition with GSNO and PGE1 were in accordance with the aforementioned ones in 4). The PGE1 final concentration was 1 μM. The n was 3.
1) Drugs having suppressing activity on apoptosis inducted in kidney cells by an NO donor were investigated. PGK1 and bicyclo PGE2 were used as test drugs, but other manners were in accordance with Experiment 8. The final concentration of the test drugs was 1 μM. The n was 5.
2) It was investigated the effects of a PGT inhibitor on the apoptosis-suppressing activity of PGK1 and bicyclo PGE2 in kidney cells. With a final concentration of BrCG, which is a PGT inhibitor, of 60 μM, manners other than simultaneous addition of GSNO and test drugs were in accordance with the aforementioned methods in 1). The n was 4.

NRK52E cells [2] = assay: Apoptosis induced by NO donor NOC12 in NRK52E kidney cells; format: cell-based, rat; details: NOC12 0.4 mM, 24 hrs, n 5
Method: as §1, §2

[3] = tested on: differentiated PC12 cells; assay: Suppression of apoptosis in differentiated PC12 cells after NGF withdrawal, TUNEL staining; format: cell-based, rat; details: for TUNEL-positive cells (%): NGF withdrawal
Method: (1) After growing rat adrenal pheochromocytoma PC12 cells (obtained by: ATCC; importer: Dainippon Pharmaceutical) with RPMI1640 containing 10 ml/l heat-inactivated horse serum and 5 ml/l heat-inactivated fetal calf serum, culturing was performed with RPMI1640 containing mouse β NGF (100 ng/ml), N2 supplement, and TIP (5 μg/ml transferrin, 5 μg/ml insulin, and 10 ng/ml progesterone). Differentiation to neuron-like cells was performed.
(2) Differentiated PC12 cells were washed with Neurobasal culture medium. After replacing the culture medium with RPMI1640 not containing β NGF, N2 supplement, and TIP, mouse β NGF antibodies (final concentration: 50 ng/ml) were added. By culturing for 24 hrs, apoptosis was induced.
0.01-1 μM) to fresh culture medium during medium replacement and culturing was performed for the same amount of time. As a negative control, a solvent (ethanol) alone was added in the same manner and culturing was performed for the same period of time. Apoptosis detection was performed by Hoechst 33342 staining (at 1 mM with a reaction in 2 minutes at room temperature) after fixation (room temperature for 30 mins) of cells with a 1% glutaraldehyde solution. Observation was made from 5 arbitrary visual fields using a fluorescence microscope. Total cell and apoptotic cells were counted, and incident of apoptosis was calculated.
As regards the apoptosis-suppressing activity of PGE1 in nerve neurons, the manners other than TUNEL staining for detection of apoptosis were in accordance with ones in Experiment 1. The results are indicated in Table2.

[4] = Hypotensive effect in anesthetized normal rats, mean blood pressure; format: in vivo, rat; design: Decrease in blood pressure: unit not given here; details: 100 μg/kg body weight into caudal artery, mean blood pressure before and after, n 3
Method: 2) The hypotensive effect of the test drugs was examined. After anesthetizing normal rats (male, body weight of about 300 g) with intraperitoneal administration of Nembutal, the dorsal region was fixed. Next, a cannula was inserted in the carotid artery and blood pressure was measured through a transducer (Nihon Kohden Corporation); simultaneous recording was made in combination with a polygraph (Nihon Kohden Corporation). After dissolving the test drugs in ethanol, and diluted (x200) with saline. Administration was given in the caudal artery in a dose of 100 μg/kg body weight. The mean blood pressure (MBP) was measured. The decrease in blood pressure was calculated from the measured values before and after administration. The n was 3 per group.

SAPK/JNK = SAPK/JNK activation in PC12 cells after NGF withdrawal, Western blot; format: cell-based, rat; design: key to Degree of luminescence: +++ is extremely strong; + is confirmed luminescence; ± is poor luminescence; details: for Degree of luminescence: phosphorylated JNK band
Method: 4) Intercellular signals via SAPK/JNK Stress-activated protein kinase/Jun N-terminal kinase (abbreviated SAPK/JNK) is associated with apoptosis induction. Thus, intercellular signals within cells via SAPK/JNK were investigated based upon effects with respect to variations in SAPK/JNK activity.
The present experiment was performed with Western blot analysis. Individual additives were added to cell culturing medium for PC12 cells in accordance with the aforementioned experiment. Culturing was performed for 1-4 hrs after withdrawal of NGF. PC12 cells were lysed with a buffer solution, centrifuged, and the supernatant of cell lysate was prepared. After said supernatant was incubated with JNK 1 polyclonal antibodies (Santa Cruz Biotechnology) at 4° C. for 1 hr. Protein A sepharose was added to it. The resultant was incubated for 1 hr and the immunoprecipitate as described below was provided. […] of cell lysate was conducted with SDS-PAGE electrophoresis, and transferred to a nylon membrane (Amersham Pharmacia Biotech). Blotting of phosphorylated (active) JNK antibodies (Santa Cruz Biotechnology) was performed with this membrane, and bands were detected in accordance with the instruction manual. Intercellular signals within cells were amplified by chemiluminescence and auto radioactivity methods (FCL, Amersham Pharmacia Biotech).

## CCCCC[C@H](O)/C=C/[C@H]1[C@H](O)CC(=O)[C@@H]1CCCCCCC(=O)O [PGE1, prostaglandin E1]
NRK52E cells [1]; NO donor GSNO
  Effect on apoptosis in kidney cells (in words): suppressed induction of apoptosis in kidney cells
NRK52E cells [1]; Table 11, GSNO 1 mM, PGE1 1 μM, 24 hrs, n 5
  Incidence of apoptosis (%): 10 ± 2 %
NRK52E cells [1]; Table 11, GSNO 1 mM, PGE1 10 μM, 24 hrs, n 5
  Incidence of apoptosis (%): 11 ± 3 %
NRK52E cells [1]; Table 12, GSNO, PGE1 1 μM, n 3
  Incidence of apoptosis (%): 8 ± 2%
NRK52E cells [2]; PGE1 1 μM
  Incidence of apoptosis (%): 11 ± 2 %
NRK52E cells [2]; PGE1 10 μM
  Incidence of apoptosis (%): 6 ± 1 %
[3]; PGE1 0.1 μM and 1 μM
  Effect on cell apoptosis (in words): suppressed cell apoptosis
[3]; PGE1 0.1 μM
  TUNEL-positive cells (%): 13.80 ± 0.75%
[3]; PGE1 1 μM
  TUNEL-positive cells (%): 8.10 ± 1.57%
[4]
  Decrease in blood pressure: −55
SAPK/JNK; 1 hr after NGF withdrawal
  Effect on SAPK/JNK activation (in words): the activation was suppressed
SAPK/JNK; PGE1 0.1 μM
  Degree of luminescence: +
SAPK/JNK; PGE1 1 μM
  Degree of luminescence: ±
